By IC50 is commonly meant the concentration at which inhibition is half-maximal.

Series [1] has as its target RSK3 (Homo sapiens, UniProt Q15349). Conditions: 1 μM; Run 1, Run 2.
In series [2] the target is T1, DLK/MAP3K12 (Homo sapiens, UniProt Q12852).
T1 sequence (Q12852 1-859): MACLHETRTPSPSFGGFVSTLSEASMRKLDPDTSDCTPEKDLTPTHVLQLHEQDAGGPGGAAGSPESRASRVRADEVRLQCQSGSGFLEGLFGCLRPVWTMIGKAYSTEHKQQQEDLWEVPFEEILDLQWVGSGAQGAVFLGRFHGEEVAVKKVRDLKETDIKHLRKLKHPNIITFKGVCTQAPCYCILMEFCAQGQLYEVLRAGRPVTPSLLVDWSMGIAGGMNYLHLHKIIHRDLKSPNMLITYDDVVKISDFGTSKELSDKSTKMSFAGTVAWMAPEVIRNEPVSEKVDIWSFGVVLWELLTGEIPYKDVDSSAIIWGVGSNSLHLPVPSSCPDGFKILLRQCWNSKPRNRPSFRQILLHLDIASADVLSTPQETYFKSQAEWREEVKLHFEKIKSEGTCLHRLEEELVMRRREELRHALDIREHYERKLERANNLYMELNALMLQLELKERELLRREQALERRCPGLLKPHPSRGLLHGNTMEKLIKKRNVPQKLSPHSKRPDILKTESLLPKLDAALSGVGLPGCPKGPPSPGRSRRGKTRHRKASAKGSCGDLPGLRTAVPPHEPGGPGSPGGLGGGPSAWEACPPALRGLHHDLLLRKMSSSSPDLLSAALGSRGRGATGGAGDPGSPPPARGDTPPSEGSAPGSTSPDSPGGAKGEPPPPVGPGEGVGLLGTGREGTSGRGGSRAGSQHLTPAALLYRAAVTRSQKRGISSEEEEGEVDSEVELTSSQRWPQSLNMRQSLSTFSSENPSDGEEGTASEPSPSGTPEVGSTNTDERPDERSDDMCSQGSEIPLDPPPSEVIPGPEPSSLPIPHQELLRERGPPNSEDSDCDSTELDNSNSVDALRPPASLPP
The settings on record: 1 μM; Run 1, Run 2.

Series [3] concerns the target CYP2C19 (Homo sapiens, UniProt P33261). The settings on record: read-out: CYP2C19 IC50; human liver microsomes. In general terms: Liver microsomes are a subcellular fraction often used to study metabolism.
The target in series [4] is P38b/MAPK11 (Homo sapiens, UniProt Q15759). In words: biochemical. The settings on record: read-out: % enzyme activity, 1 μM; Run 1, Run 2.
For series [5], the target named is STK16 (Homo sapiens, UniProt O75716). In words: biochemical. The settings on record: read-out: % enzyme activity, 1 μM; Run 1, Run 2.
Sequence of STK16 (O75716 whole entry): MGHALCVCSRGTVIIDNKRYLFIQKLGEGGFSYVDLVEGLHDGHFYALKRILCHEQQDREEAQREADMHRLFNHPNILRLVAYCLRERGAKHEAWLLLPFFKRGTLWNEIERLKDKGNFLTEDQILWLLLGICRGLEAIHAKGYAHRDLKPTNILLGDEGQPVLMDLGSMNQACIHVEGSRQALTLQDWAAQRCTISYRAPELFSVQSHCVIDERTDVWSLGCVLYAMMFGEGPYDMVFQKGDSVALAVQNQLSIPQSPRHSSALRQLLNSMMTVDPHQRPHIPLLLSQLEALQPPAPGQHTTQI
The target of series [6] is CLK1 (Homo sapiens, UniProt P49759). The settings on record: 1 μM; Run 1, Run 2.
Sequence of CLK1 (P49759 whole entry): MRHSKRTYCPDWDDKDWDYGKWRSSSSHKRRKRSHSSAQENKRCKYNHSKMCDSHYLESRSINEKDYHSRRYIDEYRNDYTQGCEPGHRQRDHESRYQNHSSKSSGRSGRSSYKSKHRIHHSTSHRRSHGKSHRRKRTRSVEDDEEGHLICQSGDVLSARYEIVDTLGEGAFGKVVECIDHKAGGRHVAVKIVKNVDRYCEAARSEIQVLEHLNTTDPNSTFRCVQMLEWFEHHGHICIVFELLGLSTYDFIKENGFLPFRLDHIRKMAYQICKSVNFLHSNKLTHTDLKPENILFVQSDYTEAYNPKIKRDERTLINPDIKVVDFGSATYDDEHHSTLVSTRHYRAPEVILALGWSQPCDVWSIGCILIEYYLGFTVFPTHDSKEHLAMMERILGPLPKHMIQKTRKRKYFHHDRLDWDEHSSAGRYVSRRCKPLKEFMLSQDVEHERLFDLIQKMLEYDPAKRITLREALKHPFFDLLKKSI
Series [7] has as its target ERK1 (Homo sapiens, UniProt P27361). The settings on record: 1 μM; Run 1, Run 2.
The target in series [8] is STK33 (Homo sapiens, UniProt Q9BYT3). In words: biochemical. Conditions: read-out: % enzyme activity, 1 μM; Run 1, Run 2.
Sequence of STK33 (Q9BYT3 whole entry): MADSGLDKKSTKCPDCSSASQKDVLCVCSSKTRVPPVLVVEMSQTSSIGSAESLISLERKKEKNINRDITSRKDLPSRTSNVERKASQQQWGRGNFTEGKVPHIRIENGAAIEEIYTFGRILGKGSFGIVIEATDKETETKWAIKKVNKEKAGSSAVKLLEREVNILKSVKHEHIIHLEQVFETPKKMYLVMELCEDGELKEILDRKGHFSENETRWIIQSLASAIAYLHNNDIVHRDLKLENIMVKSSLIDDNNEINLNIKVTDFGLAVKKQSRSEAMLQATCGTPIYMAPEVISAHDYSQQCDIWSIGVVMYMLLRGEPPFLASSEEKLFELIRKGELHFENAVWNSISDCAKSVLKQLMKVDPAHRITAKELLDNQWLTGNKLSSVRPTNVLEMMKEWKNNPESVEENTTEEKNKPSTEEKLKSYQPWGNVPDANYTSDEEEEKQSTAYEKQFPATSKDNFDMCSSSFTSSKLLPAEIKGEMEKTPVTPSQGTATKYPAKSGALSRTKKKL
For series [9], the target named is CDK1/cyclin E (Homo sapiens, UniProt P06493). Conditions: 1 μM; Run 1, Run 2.
Sequence of CDK1/cyclin E (P24864 whole entry): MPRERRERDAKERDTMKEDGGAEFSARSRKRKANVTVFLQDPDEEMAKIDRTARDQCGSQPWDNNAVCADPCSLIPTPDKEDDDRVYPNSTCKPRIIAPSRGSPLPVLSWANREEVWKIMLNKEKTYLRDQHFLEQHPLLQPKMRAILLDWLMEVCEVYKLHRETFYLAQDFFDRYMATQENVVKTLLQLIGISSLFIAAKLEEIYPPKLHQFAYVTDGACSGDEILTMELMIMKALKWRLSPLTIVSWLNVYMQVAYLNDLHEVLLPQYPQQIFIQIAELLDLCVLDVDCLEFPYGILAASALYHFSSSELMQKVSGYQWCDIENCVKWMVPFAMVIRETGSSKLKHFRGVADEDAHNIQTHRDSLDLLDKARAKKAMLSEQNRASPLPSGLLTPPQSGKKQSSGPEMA
Sequence of CDK1/cyclin E (P06493 whole entry): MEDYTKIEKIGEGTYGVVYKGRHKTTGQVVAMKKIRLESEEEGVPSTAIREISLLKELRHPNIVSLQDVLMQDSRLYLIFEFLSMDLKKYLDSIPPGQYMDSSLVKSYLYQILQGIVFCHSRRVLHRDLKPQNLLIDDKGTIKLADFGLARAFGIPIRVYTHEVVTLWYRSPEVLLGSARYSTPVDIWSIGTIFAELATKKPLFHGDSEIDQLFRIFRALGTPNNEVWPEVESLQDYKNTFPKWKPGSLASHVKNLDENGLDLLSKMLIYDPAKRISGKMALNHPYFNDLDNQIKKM
Series [10] concerns the target CDK5/P25 (Homo sapiens, UniProt Q00535). In words: biochemical. The settings on record: read-out: % enzyme activity, 1 μM; Run 1, Run 2.
Series [11] concerns the target T2, DYRK2 (Homo sapiens, UniProt Q92630).
T2 sequence (Q92630 1-601): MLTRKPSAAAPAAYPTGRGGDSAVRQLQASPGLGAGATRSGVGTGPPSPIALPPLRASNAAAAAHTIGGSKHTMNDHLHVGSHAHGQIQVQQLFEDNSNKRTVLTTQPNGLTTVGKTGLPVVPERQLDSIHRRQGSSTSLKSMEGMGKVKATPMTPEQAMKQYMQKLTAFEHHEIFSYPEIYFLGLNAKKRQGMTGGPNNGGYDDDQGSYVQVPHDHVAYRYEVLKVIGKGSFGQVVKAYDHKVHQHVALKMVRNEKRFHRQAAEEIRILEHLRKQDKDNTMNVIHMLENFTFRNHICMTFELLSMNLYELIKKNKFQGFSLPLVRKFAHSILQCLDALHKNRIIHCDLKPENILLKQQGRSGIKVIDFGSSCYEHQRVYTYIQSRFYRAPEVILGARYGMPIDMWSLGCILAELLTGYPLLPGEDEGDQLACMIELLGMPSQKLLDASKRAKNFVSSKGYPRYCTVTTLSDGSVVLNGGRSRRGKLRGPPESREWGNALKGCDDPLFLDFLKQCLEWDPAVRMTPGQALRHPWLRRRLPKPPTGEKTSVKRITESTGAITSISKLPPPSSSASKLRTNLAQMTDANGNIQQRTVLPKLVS
In words: biochemical. Conditions: read-out: % enzyme activity, 1 μM; Run 1, Run 2.

The target of series [12] is MARK2/PAR-1Ba (Homo sapiens, UniProt Q7KZI7). Put plainly: biochemical. The settings on record: read-out: % enzyme activity, 1 μM; Run 1, Run 2.
Sequence of MARK2/PAR-1Ba (Q7KZI7 whole entry): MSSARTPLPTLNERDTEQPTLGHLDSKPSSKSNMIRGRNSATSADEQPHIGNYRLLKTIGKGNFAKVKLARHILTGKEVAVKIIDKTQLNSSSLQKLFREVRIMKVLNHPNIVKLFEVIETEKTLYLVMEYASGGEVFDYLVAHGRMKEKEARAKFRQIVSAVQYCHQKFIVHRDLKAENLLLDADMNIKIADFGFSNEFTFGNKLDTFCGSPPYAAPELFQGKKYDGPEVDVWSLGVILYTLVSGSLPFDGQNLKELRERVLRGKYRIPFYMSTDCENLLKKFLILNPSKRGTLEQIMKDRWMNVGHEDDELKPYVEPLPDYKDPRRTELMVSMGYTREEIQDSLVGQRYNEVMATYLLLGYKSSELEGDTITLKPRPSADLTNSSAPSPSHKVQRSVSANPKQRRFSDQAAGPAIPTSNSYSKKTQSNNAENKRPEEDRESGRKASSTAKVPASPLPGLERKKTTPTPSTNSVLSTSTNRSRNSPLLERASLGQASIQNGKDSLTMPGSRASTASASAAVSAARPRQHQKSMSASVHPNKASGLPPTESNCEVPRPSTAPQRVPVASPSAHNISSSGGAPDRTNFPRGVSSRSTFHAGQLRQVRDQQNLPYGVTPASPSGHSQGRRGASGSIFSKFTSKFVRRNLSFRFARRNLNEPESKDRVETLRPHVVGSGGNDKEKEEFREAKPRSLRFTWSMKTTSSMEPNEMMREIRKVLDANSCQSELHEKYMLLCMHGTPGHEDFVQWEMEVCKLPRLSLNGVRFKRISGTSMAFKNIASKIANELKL
Series [13] addresses T3, GRK1 (Homo sapiens, UniProt Q15835).
T3 sequence (Q15835 1-563): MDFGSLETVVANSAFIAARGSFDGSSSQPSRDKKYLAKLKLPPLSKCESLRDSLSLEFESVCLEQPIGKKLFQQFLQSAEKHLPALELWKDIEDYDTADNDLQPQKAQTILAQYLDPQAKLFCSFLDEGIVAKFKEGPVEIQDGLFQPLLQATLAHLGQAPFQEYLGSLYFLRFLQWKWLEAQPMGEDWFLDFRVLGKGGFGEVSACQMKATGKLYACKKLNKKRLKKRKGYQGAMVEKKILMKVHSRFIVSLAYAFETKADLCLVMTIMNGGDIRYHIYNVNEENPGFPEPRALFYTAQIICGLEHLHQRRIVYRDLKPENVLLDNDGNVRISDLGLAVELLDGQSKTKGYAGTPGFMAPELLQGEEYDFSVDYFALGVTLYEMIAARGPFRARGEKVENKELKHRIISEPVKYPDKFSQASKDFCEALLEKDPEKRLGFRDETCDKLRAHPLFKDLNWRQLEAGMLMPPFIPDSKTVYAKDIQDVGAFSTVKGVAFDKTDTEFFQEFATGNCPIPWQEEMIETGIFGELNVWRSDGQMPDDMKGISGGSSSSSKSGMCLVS
In words: biochemical. Conditions: read-out: % enzyme activity, 1 μM; Run 1, Run 2.

Sequence of ERK1 (P27361 whole entry): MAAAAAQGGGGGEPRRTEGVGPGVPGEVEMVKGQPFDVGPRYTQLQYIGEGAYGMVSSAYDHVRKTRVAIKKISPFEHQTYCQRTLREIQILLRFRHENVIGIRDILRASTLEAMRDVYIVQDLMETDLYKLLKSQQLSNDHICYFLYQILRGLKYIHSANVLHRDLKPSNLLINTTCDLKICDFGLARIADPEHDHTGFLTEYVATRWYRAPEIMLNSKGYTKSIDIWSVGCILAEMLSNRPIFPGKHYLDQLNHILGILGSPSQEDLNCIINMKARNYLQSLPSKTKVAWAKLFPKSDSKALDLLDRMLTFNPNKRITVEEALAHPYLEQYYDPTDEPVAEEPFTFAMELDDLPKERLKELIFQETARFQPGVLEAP
Sequence of CDK5/P25 (Q00535 whole entry): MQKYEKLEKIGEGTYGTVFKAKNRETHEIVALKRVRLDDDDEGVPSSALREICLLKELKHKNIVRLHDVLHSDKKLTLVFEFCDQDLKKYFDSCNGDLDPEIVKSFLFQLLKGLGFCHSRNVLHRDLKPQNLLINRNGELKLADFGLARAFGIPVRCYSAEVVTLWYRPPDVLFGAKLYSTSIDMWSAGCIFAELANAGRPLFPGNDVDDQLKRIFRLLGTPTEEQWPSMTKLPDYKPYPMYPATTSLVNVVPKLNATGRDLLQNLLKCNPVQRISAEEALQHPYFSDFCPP
Sequence of CDK5/P25 (Q15078 99-307 partner limits assumed): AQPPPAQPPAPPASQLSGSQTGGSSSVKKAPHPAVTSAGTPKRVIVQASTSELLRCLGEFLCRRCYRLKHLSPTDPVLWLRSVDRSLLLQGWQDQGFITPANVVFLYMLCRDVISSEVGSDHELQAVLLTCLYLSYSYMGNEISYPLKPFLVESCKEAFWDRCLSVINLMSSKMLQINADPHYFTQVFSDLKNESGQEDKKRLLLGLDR
Sequence of CYP2C19 (P33261 whole entry): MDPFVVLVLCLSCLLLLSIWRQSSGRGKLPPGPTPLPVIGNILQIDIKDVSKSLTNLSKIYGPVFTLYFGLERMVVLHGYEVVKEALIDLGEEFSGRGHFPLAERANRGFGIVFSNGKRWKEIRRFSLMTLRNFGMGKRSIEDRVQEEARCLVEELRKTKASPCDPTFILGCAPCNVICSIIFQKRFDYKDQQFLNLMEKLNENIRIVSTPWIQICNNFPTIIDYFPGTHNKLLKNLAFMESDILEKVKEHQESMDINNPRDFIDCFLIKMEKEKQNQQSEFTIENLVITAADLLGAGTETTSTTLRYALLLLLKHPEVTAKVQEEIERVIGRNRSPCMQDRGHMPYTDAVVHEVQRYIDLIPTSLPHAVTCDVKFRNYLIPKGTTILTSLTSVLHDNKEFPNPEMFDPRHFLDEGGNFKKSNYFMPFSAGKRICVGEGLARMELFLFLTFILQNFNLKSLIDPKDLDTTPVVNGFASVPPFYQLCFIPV
Sequence of RSK3 (Q15349 whole entry): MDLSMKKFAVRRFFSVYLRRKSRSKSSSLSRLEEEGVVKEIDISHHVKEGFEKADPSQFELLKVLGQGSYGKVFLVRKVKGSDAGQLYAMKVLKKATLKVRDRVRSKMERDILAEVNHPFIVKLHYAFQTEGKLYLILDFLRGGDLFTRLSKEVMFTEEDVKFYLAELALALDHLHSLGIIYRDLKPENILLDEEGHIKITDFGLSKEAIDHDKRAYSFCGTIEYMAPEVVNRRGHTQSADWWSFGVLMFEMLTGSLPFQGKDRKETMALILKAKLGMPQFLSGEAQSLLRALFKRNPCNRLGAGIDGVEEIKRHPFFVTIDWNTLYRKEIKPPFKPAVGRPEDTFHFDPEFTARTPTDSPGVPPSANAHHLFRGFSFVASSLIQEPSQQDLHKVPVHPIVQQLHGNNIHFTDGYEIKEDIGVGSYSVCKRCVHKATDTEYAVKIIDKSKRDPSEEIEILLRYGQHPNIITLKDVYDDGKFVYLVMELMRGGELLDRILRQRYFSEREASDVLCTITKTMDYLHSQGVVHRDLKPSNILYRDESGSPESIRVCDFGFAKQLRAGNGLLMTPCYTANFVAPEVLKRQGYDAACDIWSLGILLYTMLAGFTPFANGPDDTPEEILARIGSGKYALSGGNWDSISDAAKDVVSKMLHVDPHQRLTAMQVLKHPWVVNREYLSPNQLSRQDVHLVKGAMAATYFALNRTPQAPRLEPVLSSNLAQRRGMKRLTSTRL

As to `COc1cc(-c2cncc(-c3ccc(N4CCN(C)CC4)cc3)c2C)cc(F)c1C(N)=O` [Compound 26a, 2-Fluoro-6-methoxy-4-(4-methyl-5-(4-(4-methylpiperazin-1-yl)phenyl)pyridin-3-yl)benzamide], the “% enzyme activity” value is on record as 87.93% in series [1]; 91.76% in series [2]; 94.42% in [6]; 94.73% in series [7]; 97.19% in series [9]. Further, the IC50 in series [3] is > 50 µM. For the same compound, the remaining activity at 1 µM in [4] is 92.3%; in series [5], 107%; in series [8], 91%; in series [10], 94.6%; in series [11], 96.3%; in [12] it was 92.8%. Besides, the remaining activity at 1 µM in series [13] stood at 94%.

For the compound `COc1cc(-c2cncc(-c3ccc(N4C[C@@H](C)N(C)[C@@H](C)C4)cc3)c2C)cc(F)c1C(N)=O` [Compound 26c, 2-Fluoro-6-methoxy-4-(4-methyl-5-(4-((3R,5S)-3,4,5-trimethylpiperazin-1-yl)phenyl)pyridin-3-yl)benzamide], the “% enzyme activity” value in series [1] was 99.74%; in series [2] it was 97.93%; in [6], 86.91%; in series [7] it was 94.56%; in series [9] it was 91.92%. For the same compound, in [3], the IC50 was > 50 µM. In addition, the remaining activity at 1 µM in series [4] stood at 95.5%; in series [5], 101%; in series [8], 97.4%; in [10] it was 94.8%; in [11] it was 100%; in series [12], 104%. Also, the remaining activity at 1 µM in [13] was 95.3%.

(Values after PMC8213057, “Targeting ALK2: An Open Science Approach to Developing Therapeutics for the Treatment of Diffuse Intrinsic Pontine Glioma” (Journal of Medicinal Chemistry, 2020).)
